Legend:
Format in all cases: in vivo
Male C57Bl/6J mice [1] = test: Marble burying test; set-up: key: −: No reduction in number of marbles buried; +: Significant reduction in number of marbles buried (P < 0.05 vs vehicle)
Protocol: The marble burying assay is used to evaluate the anxiolytic activity of a test compound. After placement in a novel cage containing glass marbles, mice will bury the marbles. Acute administration of anxiolytic agents, as well as antidepressants, decrease this activity at non-sedating doses. Male C57Bl/6J mice from Jackson Laboratories were used in this study and were acclimatized to the experimental room for at least 1 hour prior to testing. Mice (n=10 per group) were administered sterile water or test compound intraperitoneally (i.p.) or orally by gavage (p.o.), or the positive control chlordiazepoxide (15 mg/kg, i.p.), in 10 mL/kg injection volumes, and returned to their home cages for a 30-minute pretreatment period. The mice were then placed individually in clean cages, containing hard wood bedding and twenty black marbles placed in spaced rows of 4×5. After a 30-minute test session, the number of buried marbles was counted. A marble was considered buried if it was pushed at least two thirds into the bedding. Locomotor activity was monitored by measuring the distance traveled using an overhead camera and Video Tracker Software (ViewPoint Life Sciences Software, France). A reduction in the number of marbles buried relative to the vehicle condition indicates an anxiolytic drug-like effect.

Male C57Bl/6J mice [2] = test: Amphetamine induced hyperlocomotion assay; set-up: key: #: Significant increase in total distance traveled (P < 0.05 vs vehicle + AMPH group); −: No change in total distance traveled; Significant decrease in total distance traveled (P < 0.05 vs vehicle + AMPH group); conditions: 3 mg/kg PO Compound + AMPH
Protocol: Psychostimulants such as amphetamine (AMPH) are frequently used to induce or mimic a manic-like or psychotic-like state. AMPH administration to rodents increases horizontal locomotion, vertical rearing and repetitive stereotyped behaviors, and typical antipsychotic drugs, such as haloperidol, can reduce these behaviors. The antimanic/antipsychotic-like effects of test compounds were evaluated in male C57Bl/6J mice from Jackson Laboratories Mice were acclimatized to the experimental room for at least 1 hour prior to testing. The mice (n=10 per group) were administered vehicle or test compound orally by gavage (10 mL/kg injection volume) and placed individually in the novel open field (OF) chambers (Med Associates) for 30 minutes of baseline activity measurement. Mice were then injected with either water or AMPH (4 mg/kg, i.p., 10 mL/kg) and placed back in the same individual OF chambers for a 60-minute testing session during which the effects of test compounds on stimulant-induced behaviors (total distance traveled, rearing and stereotypy) were measured. A reduction in total distance traveled relative to the vehicle+AMPH condition indicates an antimanic/antipsychotic drug-like response.

Adult male AJ mice = test: Tail suspension test (TST); set-up: key: −: No decrease in Mean Total Time Immobile; +: Significant decrease in Mean Total Time Immobile (P < 0.05 vs vehicle); conditions: 3 mg/kg PO
Description: The tail suspension test (TST) is a rodent screening test for potential (human) antidepressant drugs. It is based on the assumption that an animal will actively try to escape an aversive (stressful) stimulus. If escape is impossible, the animal will eventually stop trying (“give up”). In the TST, a mouse is suspended by the tail so that its body dangles in the air, head downward. Mice initially struggle to face upward and climb to a solid surface. When the animal stops struggling and hangs immobile it is considered to have “given up”. Shorter periods of immobility are characteristic of antidepressant-like activity. Accordingly, longer periods of immobility are considered indicative of a depressive-like state. It has been shown that treatment with an antidepressant drug will decrease the time the animal spends immobile. See generally L. Steru et al., Psychopharmacology (Berl). 1985; 85(3):367-70; B. Thierry et al., Psychopharmacology 1986; 90:284-85.
Adult male AJ mice from Jackson Laboratories received vehicle (sterile water) or test compound orally by gavage, or the positive control desipramine (20 mg/kg, i.p.), in 10 mL/kg injection volumes, 30 min before being subjected to the Tail Suspension Test. In this test, mice are placed in the Tail Suspension chambers (white polyvinylchloride cubicles measuring 33×33×31.75 cm Med Associates, Inc. St. Albans, Vt.) by a piece of transparent (Scotch®) tape attached to the tail, from about the mid-tail, with approximately 2 cm of tape past the end of the tail for 10 min during which the time spent immobile is measured. A reduction in total time immobile relative to the vehicle condition indicates an antidepressant drug-like response.

Male C57Bl/6J mice [3] = test: Prepulse inhibition of startle (PPI); set-up: key: −: No change in PPI; +: Significant increase in PPI at one pre-pulse intensity (P < 0.05 vs vehicle); ++: Significant increase in PPI at two pre-pulse intensities (P < 0.05 vs vehicle); +++: Significant increase in PPI at three pre-pulse intensities (P < 0.05 vs vehicle); conditions: 3 mg/kg PO
Description: The acoustic startle is an unconditioned reflex response to an external auditory stimulus. Prepulse inhibition of startle (PPI) refers to the reduction in the startle response caused by the presentation of a low-intensity auditory stimulus prior to the startle stimulus. The PPI paradigm is used for the study of schizophrenia and antipsychotic action due to the similarities between the results from human and rodent studies. PPI has been used as a tool for the assessment of deficiencies in sensory-motor gating observed in schizophrenia and to screen for potential antipsychotic drugs. Various psychotomimetic drugs, such as phencyclidine (PCP), can disrupt PPI. In mice, antipsychotic drugs such as haloperidol can increase PPI and clozapine can reverse the disruption of PPI induced by PCP.
Male C57Bl/6J mice from Jackson Laboratories were placed in the PPI chambers (Med Associates) for a 5 min session of white noise (70 dB) habituation. After the habituation period, the test session was initiated. The session started with a habituation block of 6 presentations of the startle stimulus alone, followed by 10 PPI blocks, each of which consisted of 6 different types of trials. Trial types were: ‘null’ (no stimuli), ‘startle’ (120 dB), ‘startle plus prepulse’ (4, 8, and 12 dB over background noise, i.e., 74, 78, or 82 dB) and ‘prepulse’ (82 dB). Trial types were presented in a random order within each block. Each trial started with a 50 ms stimulus-free period during which baseline movements were recorded. This was followed by a subsequent 20 ms period during which the prepulse stimulus was presented and responses to the prepulse measured. After a further 100 ms period, the startle stimulus was presented for 40 ms and responses recorded for 100 ms from startle onset. Responses were sampled every ms. The inter-trial interval was variable with an average of 15 s (range from 10 to 20 s). In ‘startle’ trials, the basic auditory startle response was measured. The basic startle response was calculated as the mean startle response of all ‘startle’ trials (i.e., excluding the first habituation block). In ‘startle plus prepulse’ trials, the degree of inhibition of the normal startle was calculated and expressed as a percentage of the basic startle response.
Mice were treated with vehicle or test compound orally by gavage, or haloperidol (1 mg/kg, i.p.), in 10 mL/kg injection volumes, 30 min prior to PPI test. The PPI enclosures were cleaned following each test. An increase in the percent PPI relative to the vehicle condition indicates an antipsychotic drug-like response.

compound-treated mice = test: Neuropharmacological assay (SmartCube): behavioral activity signature and minimal effective dose; conditions: for AD: ADHD (probability of activity signature) / AG: analgesic (probability of activity signature) / AX: anxiolytic (probability of activity signature) / CE: cognitive enhancer (probability of activity signature) / DP: anti-depressant (probability of activity signature) / MS: mood stabilizer (probability of activity signature) / PS: anti-psychotic (probability of activity signature) / SD: sedative hypnotic (probability of activity signature) / UN: uncharacterized CNS activity (probability of activity signature): i.p. 15 min before test, most efficacious dose(s)
Procedure, shortened: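 Mice dosed i.p. 15 min before test, compound in N-methyl-2-pyrrolidone/PEG/propylene glycol, 3 doses; video-captured behavior matched to reference-drug signatures, giving per-class probabilities at most efficacious dose. MED from doses typically 0.3–30 mpk, defined as lowest dose with ≥50% total activity.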

male Sprague-Dawley rats = test: Stress induced hyperthermia (SIH) assay; set-up: key: −: No change in Delta T ([…]T); +: Significant decrease in Delta T ([…]T) (P < 0.05 vs vehicle)
Description: Stress-induced hyperthermia (SIH), mediated by the autonomic nervous system, is well known to occur prior to and during exposure to stress and/or anxiety-inducing situations. In many human anxiety disorders, it occurs as an integral part of the pathology and is often considered a representative symptom of the disease, e.g. in generalized anxiety disorder as defined in DSM-IV. In rodents, acute administration of anxiolytic drugs, such as buspirone or chlordiazepoxide (CDP), are known to reduce the SIH response to stressors such as handling, noise, heat, novelty, or pain. The test involves two measures of rectal temperature repeated in the same animal with a 10-minute interval. On the day prior to testing, male Sprague-Dawley rats from Envigo (n=10 per group) were brought to the experimental room approximately one hour before scheduled lights out and singly housed overnight with food and water ad libitum. On the morning of the experiment, animals were first injected with either vehicle or test compound orally by gavage, or CDP (10 mg/kg, i.p.). One hour following injection, each animal was removed from the holding cage and held in a supine position while the rectal temperature was measured by slowly inserting a rectal probe into the animal's rectum at a length of approximately 0.5 cm. The rectal probe was attached to a PhysiTemp digital thermometer (Fisher Scientific) which provides temperature readings at 0.1° C. accuracy. The probe remained inside the animal for approximately 5 seconds or until body temperature reaches stability. This temperature was recorded as the baseline rectal temperature (T1). The animal was immediately placed back to the holding cage and after a 10-min interval the second rectal temperature (T2) was taken using the same procedure as in measuring T1. Before each insertion, the rectal probe was cleaned with an alcohol pad and lubricated with sterile K-Y jelly. All SIH studies were conducted between 8:00-11:00 a.m. The SIH response was calculated as the difference in temperature between the second and first temperature reading (Delta T, […]T). A reduction in […]T relative to the vehicle condition indicates an anxiolytic drug-like response.

[4] = MED = dose having 50% or more total activity

Row | Compound | Total Distance Traveled (Male C57Bl/6J mice [2]) | Mean Total Time Immobile (Adult male AJ mice) | Effect on Pre-Pulse Inhibition (PPI) (Male C57Bl/6J mice [3]) | Marbles Buried (Male C57Bl/6J mice [1]; 3 mg/kg (p.o.)) | AD: ADHD (probability of activity signature) (compound-treated mice) | AG: analgesic (probability of activity signature) (compound-treated mice) | AX: anxiolytic (probability of activity signature) (compound-treated mice) | CE: cognitive enhancer (probability of activity signature) (compound-treated mice) | DP: anti-depressant (probability of activity signature) (compound-treated mice) | MS: mood stabilizer (probability of activity signature) (compound-treated mice) | PS: anti-psychotic (probability of activity signature) (compound-treated mice) | SD: sedative hypnotic (probability of activity signature) (compound-treated mice) | UN: uncharacterized CNS activity (probability of activity signature) (compound-treated mice) | Marbles Buried (Male C57Bl/6J mice [1]; 3 mg/kg (i.p.)) | Marbles Buried (Male C57Bl/6J mice [1]; 10 mg/kg (i.p.)) | Delta T ([…]T) (male Sprague-Dawley rats; 10 mg/kg PO) | Delta T ([…]T) (male Sprague-Dawley rats; 30 mg/kg PO) | further results
1 | N[C@H]1COCc2ccc(F)cc21 (single isomer, unassigned) [Compound 114] | − | − | − |  |  |  |  |  |  |  |  |  |  |  |  |  |  | Marbles Buried (Male C57Bl/6J mice [1]; 1 mg/kg (p.o.)): −
2 | N[C@@H]1COCc2ccc3ccccc3c21 (single isomer, unassigned) [Compound 117] | − | − | − |  |  |  |  |  |  |  |  |  |  |  |  |  |  | Marbles Buried (Male C57Bl/6J mice [1]; 1 mg/kg (p.o.)): −
3 | Cc1ccc2c(c1)[C@H](N)COC2 [Compound 123] | # | − | − | − |  |  |  |  |  |  |  |  |  |  |  |  |  | 
4 | C[C@@H]1OCc2ccccc2[C@H]1N (single isomer, unassigned) [Example 152] |  |  |  |  | + (LOQ ≤ + <5%) | ++ (5% ≤ ++ <25%) | +++ (25% ≤ +++ <50%) | ++ (5% ≤ ++ <25%) | ++ (5% ≤ ++ <25%) | + (LOQ ≤ + <5%) | ++ (5% ≤ ++ <25%) | + (LOQ ≤ + <5%) | +++ (25% ≤ +++ <50%) | − | + | + | + | Potency: minimal effective dose (MED) (compound-treated mice; [4]): A (≤3 mpk); Delta T ([…]T) (male Sprague-Dawley rats; 1 mg/kg PO): +; Delta T ([…]T) (male Sprague-Dawley rats; 3 mg/kg PO): +
5 | N[C@H]1COCc2ccc3ccccc3c21 (single isomer, unassigned) [Compound 118] | − | − | − | − |  |  |  |  |  |  |  |  |  |  |  |  |  | 
6 | Cc1ccc2c(c1)[C@H](N)[C@H](C)OC2 [Example 157] |  |  |  |  | + (LOQ ≤ + <5%) | ++ (5% ≤ ++ <25%) | ++ (5% ≤ ++ <25%) | ++ (5% ≤ ++ <25%) | ++ (5% ≤ ++ <25%) | ++ (5% ≤ ++ <25%) | +++ (25% ≤ +++ <50%) | + (LOQ ≤ + <5%) | ++++ (50% ≤ ++++) | − | + | + | + | Potency: minimal effective dose (MED), binned (compound-treated mice; [4]): A (≤3 mpk); Delta T ([…]T) (male Sprague-Dawley rats; 3 mg/kg PO): +
7 | Cc1ccc2c(c1)[C@@H](N)COC2 [Compound 124] | − | − | − | − |  |  |  |  |  |  |  |  |  |  |  |  |  | 
8 | Cc1cccc2c1[C@@H](N)[C@@H](C)OC2 (single isomer, unassigned) [Example 170] |  |  |  |  | + (LOQ ≤ + <5%) | ++ (5% ≤ ++ <25%) | ++ (5% ≤ ++ <25%) | ++ (5% ≤ ++ <25%) | ++ (5% ≤ ++ <25%) | + (LOQ ≤ + <5%) | ++ (5% ≤ ++ <25%) | + (LOQ ≤ + <5%) | ++++ (50% ≤ ++++) | − | + | + | + | Potency: minimal effective dose (MED), binned (compound-treated mice; [4]): A (≤3 mpk)
